From ChEMBL document CHEMBL2449286, “Structure-activity data for a series of P-glycoprotein inhibitors (Supplementary Data to CHEMBL1142990)”

biological target: ATP-dependent translocase ABCB1 (Homo sapiens, UniProt P08183)
Sequence (P08183 whole entry): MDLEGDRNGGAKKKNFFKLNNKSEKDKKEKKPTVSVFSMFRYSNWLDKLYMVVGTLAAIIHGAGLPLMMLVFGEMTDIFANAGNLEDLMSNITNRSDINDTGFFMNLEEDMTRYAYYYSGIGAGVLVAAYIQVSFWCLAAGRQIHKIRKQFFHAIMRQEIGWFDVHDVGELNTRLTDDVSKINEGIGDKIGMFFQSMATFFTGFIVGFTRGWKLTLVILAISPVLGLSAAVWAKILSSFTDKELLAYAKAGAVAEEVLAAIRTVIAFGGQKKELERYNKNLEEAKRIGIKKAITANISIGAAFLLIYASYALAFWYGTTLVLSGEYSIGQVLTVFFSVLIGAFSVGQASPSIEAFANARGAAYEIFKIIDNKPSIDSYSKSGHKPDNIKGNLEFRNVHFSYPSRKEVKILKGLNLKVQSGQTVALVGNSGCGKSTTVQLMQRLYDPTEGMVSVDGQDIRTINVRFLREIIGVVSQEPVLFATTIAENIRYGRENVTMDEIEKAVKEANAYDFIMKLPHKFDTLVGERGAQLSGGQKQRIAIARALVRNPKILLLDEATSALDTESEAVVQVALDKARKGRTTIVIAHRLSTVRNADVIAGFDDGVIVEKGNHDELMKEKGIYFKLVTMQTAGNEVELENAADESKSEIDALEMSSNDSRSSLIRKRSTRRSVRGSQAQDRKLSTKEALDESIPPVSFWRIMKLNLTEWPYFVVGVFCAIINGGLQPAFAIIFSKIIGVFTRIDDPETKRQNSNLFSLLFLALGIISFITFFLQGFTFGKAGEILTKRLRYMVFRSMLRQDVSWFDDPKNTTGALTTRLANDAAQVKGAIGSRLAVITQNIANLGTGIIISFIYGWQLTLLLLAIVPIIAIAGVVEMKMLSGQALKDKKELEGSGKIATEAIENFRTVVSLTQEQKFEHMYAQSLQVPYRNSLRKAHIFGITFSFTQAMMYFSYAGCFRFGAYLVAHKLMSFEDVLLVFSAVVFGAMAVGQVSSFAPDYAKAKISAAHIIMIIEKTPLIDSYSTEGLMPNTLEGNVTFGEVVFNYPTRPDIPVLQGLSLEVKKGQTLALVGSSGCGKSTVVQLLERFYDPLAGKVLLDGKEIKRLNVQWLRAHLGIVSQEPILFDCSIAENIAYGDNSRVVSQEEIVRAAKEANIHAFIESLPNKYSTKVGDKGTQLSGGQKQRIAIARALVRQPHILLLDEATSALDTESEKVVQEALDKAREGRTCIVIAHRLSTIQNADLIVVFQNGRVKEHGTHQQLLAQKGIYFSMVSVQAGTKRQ

EC50 | Structure (SMILES)
3090 nM | Cc1ccc(-c2n[nH]c3c2[C@@H](c2ccc(N(C)C)cc2)C(C#N)=C(N)O3)cc1
83.2 nM | Cc1cccc(N2CCN(C[C@@H](O)COc3ccccc3[C@@H](O)CCc3ccccc3)CC2)c1C
832 nM | CCC(=O)c1ccccc1OC[C@H](O)CN1CCN(c2ccc(F)cc2)CC1
4270 nM | CCC(=O)c1ccccc1OC[C@H](O)CN(C(C)C)C(C)C
1450 nM | CCC(=O)c1ccccc1OC[C@H](O)CN1CCN(Cc2ccccc2)CC1
120 nM | CCC(=O)c1ccccc1OC[C@H](O)CNCCC(c1ccccc1)c1ccccc1
12600 nM | CC(=O)c1cc(C)ccc1OC[C@H](O)CN1CCOCC1
6170 nM | CC(=O)c1cc(C)ccc1OC[C@H](O)CN(C(C)C)C(C)C
3630 nM | CC(=O)c1cc(C)ccc1OC[C@H](O)CN1CCN(c2ccc(F)cc2)CC1
263 nM | Cc1ccc(OC[C@H](O)CN2CCCCC2)c(C(=O)CCc2ccccc2)c1
1660 nM | Cc1ccc(OC[C@H](O)CN2CCOCC2)c(C(=O)CCc2ccccc2)c1
245 nM | Cc1ccc(OC[C@H](O)CN2CCN(c3ccc(F)cc3)CC2)c(C(=O)CCc2ccccc2)c1
56.2 nM | Cc1ccc(OC[C@H](O)CN2CCN(c3cccc(C)c3C)CC2)c(C(=O)CCc2ccccc2)c1
380 nM | Cc1ccc(NC(=S)N2CCN(C[C@@H](O)COc3ccccc3C(=O)c3ccccc3)CC2)cc1
479 nM | Cc1ccc(NC(=O)N2CCN(C[C@@H](O)COc3ccccc3C(=O)c3ccccc3)CC2)cc1
52.5 nM | O=C(c1ccccc1)c1ccccc1OC[C@@H](O)CN1CCN(C[C@@H](O)COc2ccccc2C(=O)c2ccccc2)CC1
9550 nM | CC(=O)c1cc(C)ccc1OC[C@H](O)CN1CCN(C[C@H](O)COc2ccccc2C(=O)c2ccccc2)CC1
3470 nM | COc1ccc(N2CCN(C[C@@H](O)COc3ccc(C)cc3C(C)=O)CC2)cc1
7410 nM | CC(=O)c1cc(C)ccc1OC[C@H](O)CN1CCN(C(=O)Nc2ccc(C)cc2)CC1
3160 nM | CC(=O)c1cc(C)ccc1OC[C@H](O)CN1CCN(c2ccc(C)cc2)CC1
977 nM | O=C(c1ccccc1)c1ccc(OC[C@H](O)CN2CCN(c3ccc(F)cc3)CC2)cc1
501 nM | Cc1ccccc1N1CCN(C[C@@H](O)COc2ccc(C(=O)c3ccccc3)cc2)CC1
661 nM | Cc1cccc(N2CCN(C[C@@H](O)COc3ccc(C(=O)c4ccccc4)cc3)CC2)c1C

EC50 | Structure (SMILES)
1410 nM | CCC(=O)c1ccc(OC[C@H](O)CN2CCN(c3cccc(C)c3C)CC2)cc1
1450 nM | CCC(=O)c1ccc(OC[C@H](O)CN2CCN(c3ccc(F)cc3)CC2)cc1
871 nM | CCC(=O)c1ccc(OC[C@H](O)CN2CCN(c3ccccc3C)CC2)cc1
33100 nM | CCC(=O)c1ccc(OC[C@H](O)CN2CCCCC2)cc1
1550 nM | O=C(CCc1cccc2ccccc12)c1ccc(OC[C@H](O)CN2CCOCC2)cc1
13500 nM | O=C(c1ccccc1)c1ccccc1OC[C@H](O)CN1CCOCC1
17.8 nM | O=C(CCc1cccc2ccccc12)c1ccccc1OC[C@H](O)CN1CCN(c2ccc(F)cc2)CC1
5370 nM | O=C(c1ccccc1)c1ccc(OC[C@H](O)CN2CCOCC2)cc1
2190 nM | O=C(c1ccccc1)c1ccc(OC[C@H](O)CN2CCCCC2)cc1
7760 nM | CCC(=O)c1ccc(OC[C@H](O)CN(C(C)C)C(C)C)cc1
575 nM | O=C(c1ccccc1)c1cccc(OC[C@H](O)CN2CCN(c3ccc(F)cc3)CC2)c1
174 nM | Cc1cccc(N2CCN(C[C@@H](O)COc3cccc(C(=O)c4ccccc4)c3)CC2)c1C
3550 nM | O=C(c1ccccc1)c1cccc(OC[C@H](O)CN2CCCCC2)c1
204 nM | Cc1ccccc1N1CCN(C[C@@H](O)COc2cccc(C(=O)c3ccccc3)c2)CC1
479 nM | Cc1cccc(N2CCN(C[C@@H](O)COc3ccc(C(=O)CCc4cccc5ccccc45)cc3)CC2)c1C
550 nM | O=C(CCc1cccc2ccccc12)c1ccc(OC[C@H](O)CN2CCN(c3ccc(F)cc3)CC2)cc1
407 nM | Cc1ccccc1N1CCN(C[C@@H](O)COc2ccc(C(=O)CCc3cccc4ccccc34)cc2)CC1
263 nM | Cc1cccc(N2CCN(C[C@@H](O)COc3cccc(C(=O)CCc4cccc5ccccc45)c3)CC2)c1C
437 nM | CC(C)N(C[C@@H](O)COc1ccc(C(=O)c2ccccc2)cc1)C(C)C
11500 nM | O=C(c1ccccc1)c1cccc(OC[C@H](O)CN2CCOCC2)c1
263 nM | O=C(CCc1cccc2ccccc12)c1ccc(OC[C@H](O)CN2CCCCC2)cc1
115 nM | CC(C)N(C[C@@H](O)COc1ccc(C(=O)CCc2cccc3ccccc23)cc1)C(C)C
631 nM | O=C(CCc1cccc2ccccc12)c1cccc(OC[C@H](O)CN2CCOCC2)c1

EC50 | Structure (SMILES)
145 nM | O=C(CCc1cccc2ccccc12)c1cccc(OC[C@H](O)CN2CCCCC2)c1
58.9 nM | CC(C)N(C[C@@H](O)COc1cccc(C(=O)CCc2cccc3ccccc23)c1)C(C)C
15800 nM | Cc1c(C(=O)c2ccccc2)c(=O)n(-c2ccccc2)n1C[C@H](O)CN(C(C)C)C(C)C
891 nM | Cc1ccccc1N1CCN(C[C@@H](O)Cn2c(C)c(C(=O)c3ccccc3)c(=O)n2-c2ccccc2)CC1
24000 nM | Cc1c(C(=O)c2ccccc2)c(=O)n(C)n1C[C@H](O)CN(C(C)C)C(C)C
1200 nM | Cc1nn(C)c(OC[C@H](O)CN(C(C)C)C(C)C)c1C(=O)c1ccccc1
24000 nM | Cc1c([C@H](O)c2ccccc2)c(=O)n(-c2ccccc2)n1C[C@H](O)CN(C(C)C)C(C)C
3720 nM | CCC/N=C(/CCc1ccccc1)[C@H]1C(=O)N(c2ccccc2)N=C1C
6310 nM | CCCNC[C@@H](O)Cn1c(C)c(C(=O)CCc2ccccc2)c(=O)n1-c1ccccc1
186000 nM | CCCNC[C@@H](O)Cn1c(C)c(C(=O)c2ccccc2)c(=O)n1-c1ccccc1
11700 nM | Cc1c(C(=O)CCc2ccccc2)c(=O)n(-c2ccccc2)n1C[C@H](O)CNC(C)C
7760 nM | Cc1c(C(=O)CCc2ccccc2)c(=O)n(-c2ccccc2)n1C[C@H](O)CNC(C)(C)C
2690 nM | CCCCNC[C@@H](O)Cn1c(C)c(C(=O)CCc2ccccc2)c(=O)n1-c1ccccc1
72400 nM | Cc1c(C(=O)c2cccs2)c(=O)n(-c2ccccc2)n1C[C@H](O)CNC(C)(C)C
123000 nM | Cc1c(C(=O)c2cccs2)c(=O)n(-c2ccccc2)n1C[C@H](O)CNC(C)C
83200 nM | Cc1c(C(=O)c2ccccc2)c(=O)n(-c2ccccc2)n1C[C@H](O)CNC(C)C
81300 nM | Cc1c(C(=O)c2ccccc2)c(=O)n(-c2ccccc2)n1C[C@H](O)CNC(C)(C)C
95500 nM | CCCNC[C@@H](O)Cn1c(C)c(C(=O)c2cccs2)c(=O)n1-c1ccccc1
813 nM | CCCNC[C@@H](O)COc1ccsc1C(=O)CCc1ccccc1
61700 nM | CN1CCO[C@@H]2[C@@H]1c1cc(C#N)ccc1OC2(C)C
19500 nM | CC1(C)Oc2ccc(C#N)cc2[C@H]2[C@H]1OCCN2Cc1ccccc1
97700 nM | CN(CCO)[C@H]1c2cc(C#N)ccc2OC(C)(C)[C@@H]1O
5370 nM | CC1(C)Oc2ccc(C#N)cc2[C@H](N(CCO)Cc2ccccc2)[C@H]1O

EC50 | Structure (SMILES)
977 nM | CC(C)[C@H](C(=O)OC(C)(C)C)N(C)[C@H]1c2cc(C#N)ccc2OC(C)(C)[C@@H]1O
49000 nM | CC(C)[C@@H]1CO[C@@H]2[C@@H](N1)c1cc(C#N)ccc1OC2(C)C
3550 nM | COc1ccccc1N1CCN([C@H]2c3ccccc3N(C(=O)c3ccc(C)cc3)[C@H](C)[C@@H]2O)CC1
9120 nM | CCN(CCO)[C@@H]1c2ccccc2N(C(=O)c2ccc(C)cc2)[C@H](C)[C@@H]1O
1380 nM | Cc1ccc(C(=O)N2c3ccccc3[C@@H](N(CCO)Cc3ccccc3)[C@@H](O)[C@H]2C)cc1
3240 nM | Cc1ccc(C(=O)N2c3ccccc3[C@H](NCc3ccccc3)[C@@H](O)[C@H]2C)cc1
427 nM | Cc1ccc(C(=O)N2c3ccccc3[C@H](N3CCN(Cc4ccccc4)CC3)[C@@H](O)[C@H]2C)cc1
7940 nM | Cc1ccc(C(=O)N2c3ccccc3[C@@H](N3CCCC3)[C@@H](O)[C@H]2C)cc1
4680 nM | Cc1ccc(C(=O)O[C@@H]2[C@H](N3CCCC3)c3ccccc3N[C@@H]2C)cc1
2690 nM | CCN(CC)CCC[C@H](C)N[C@@H]1c2ccccc2N(C(=O)c2ccc(C)cc2)[C@H](C)[C@@H]1O
331 nM | CCN(CC)CCC[C@H](C)N[C@@H]1c2ccccc2N[C@H](C)[C@@H]1OC(=O)c1ccc(C)cc1
1780 nM | CC(C)[C@H](N[C@H]1c2cc(C#N)ccc2OC(C)(C)[C@@H]1O)C(=O)OC(C)(C)C
1200 nM | CCc1ccc(N2C(=O)c3ccccc3N[C@H]2c2ccc(OCC(C)C)cc2)cc1
25100 nM | CCOc1ccc(N2C(=O)c3ccccc3N[C@H]2c2ccc(N(C)C)cc2)cc1
20900 nM | COc1ccc([C@@H]2Nc3ccccc3C(=O)N2c2ccc(NC(C)=O)cc2)cc1
1000 nM | COc1ccc([C@@H]2Nc3ccccc3C(=O)N2c2ccc(Oc3ccccc3)cc2)cc1
759 nM | CC[C@H](C)c1ccc(N2C(=O)c3ccccc3N[C@H]2c2ccc(OC)cc2)cc1
288 nM | CC[C@H](C)c1ccc(N2C(=O)c3ccccc3N[C@H]2c2ccc(C(C)C)cc2)cc1
741 nM | CC(C)(C)c1ccc(N2C(=O)c3ccccc3N[C@H]2c2ccc3c(c2)OCO3)cc1
8710 nM | CCOc1ccccc1NC(=O)C1=C(C)NC(=S)N[C@@H]1c1cccs1
2000 nM | CC(C)(C)OC(=O)CN(Cc1ccccc1)[C@H]1c2cc(C#N)ccc2OC(C)(C)[C@@H]1O
851 nM | CC1(C)Oc2ccc(C#N)cc2[C@H](N2CCN(Cc3ccccc3)CC2)[C@H]1O
46800 nM | CC(C)(C)OC(=O)CN[C@H]1c2cc(C#N)ccc2OC(C)(C)[C@@H]1O
